Source: patent US20120330012A1, “Novel Tricyclic Compounds” (ABBOTT LABORATORIES, priority 2011, published 2012)

Each compound was assayed against T1, Jak3 (Homo sapiens, UniProt P52333) (assay: In vitro Jak3 kinase activity measured by trFRET). Conditions: Jak3 enzyme aa 811-1103, 0.001 mM ATP.
T1 construct: Jak3 enzyme (aa 811-1103); expressed in SF9 cells as a GST fusion; GST; made in house; host or cells: SF9 insect cells
Assay type: biochemical
From the text: In Vitro Jak3 Kinase Activity Measured by Time-Resolved Fluorescence Resonance Energy Transfer (trFRET)

T1 sequence (P52333 811-1103): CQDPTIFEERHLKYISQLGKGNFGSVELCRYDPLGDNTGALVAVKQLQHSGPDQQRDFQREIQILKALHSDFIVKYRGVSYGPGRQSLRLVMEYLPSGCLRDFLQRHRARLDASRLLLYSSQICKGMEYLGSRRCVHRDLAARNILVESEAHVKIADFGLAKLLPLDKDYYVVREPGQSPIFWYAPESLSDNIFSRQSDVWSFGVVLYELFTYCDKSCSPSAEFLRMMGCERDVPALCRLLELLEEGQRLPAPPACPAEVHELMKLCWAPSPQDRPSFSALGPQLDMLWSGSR

Row | Structure (SMILES) | IC50 [µM]
1 | N#CC1(C(=O)N2CCC[C@H](c3nnn4cnc5[nH]ccc5c34)C2)CC1 (single isomer, unassigned) [compound 5] | 1 to 10
2 | c1cc2c(ncn3nnc(C4CCCCC4)c23)[nH]1 [Example #2, 1-Cyclohexyl-7H-pyrrolo[3,2-e][1,2,3]triazolo[1,5-c]pyrimidine] | 1 to 10
3 | O=C(OCc1ccccc1)N1CCCC(c2ncn3cnc4[nH]ccc4c23)C1 (stereo not shown) [Example #4, Benzyl 3-(7H-imidazo[1,5-c]pyrrolo[3,2-e]pyrimidin-1-yl)piperidine-1-carboxylate] | 1 to 10
4 | N#CC1(C(=O)N2CCCC(c3nnn4cnc5[nH]ccc5c34)C2)CC1 (racemic) [Examples #5 and #6, Step E, 1-(3-(7H-Pyrrolo[3,2-e][1,2,3]triazolo[1,5-c]pyrimidin-1-yl)piperidine-1-carbonyl)cyclopropanecarbonitrile] | 1 to 10
5 | CC(C)c1nc(C2CCCN(C(=O)OCc3ccccc3)C2)c2c3cc[nH]c3ncn12 (stereo not shown) [Example #3, Benzyl 3-(3-isopropyl-7H-imidazo[1,5-c]pyrrolo[3,2-e]pyrimidin-1-yl)piperidine-1-carboxylate] | 1 to 10
6 | N#CC1(C(=O)N2CCC[C@@H](c3nnn4cnc5[nH]ccc5c34)C2)CC1 (single isomer, unassigned) [compound 6] | 0.1 to 1

What follows are compounds tested against T2, Syk (Homo sapiens, UniProt P43405) (assay: In vitro Syk kinase activity measured by trFRET). Conditions: Syk catalytic domain aa356-635, 0.001 mM ATP.
T2 construct: Syk catalytic domain (aa356-635, purified in-house at the Abbott Bioresearch Center); His tag (C); made in house; host or cells: SF9 insect cells
Assay type: biochemical
Experimental: In Vitro Syk Kinase Activity Measured by Time-Resolved Fluorescence Resonance Energy Transfer (trFRET)
0.3 nM Syk catalytic domain (aa356-635, purified in-house at the Abbott Bioresearch Center) was mixed with 0.1 μM peptide substrate (biotin-TYR1, Sequence: Biotin-(Ahx)-[…]-COOH) at varying concentrations of inhibitor in reaction buffer: 50 mM MOPSO pH 6.5, 10 mM MgCl2, 2 mM MnCl2, 2.5 mM DTT, 0.01% BSA, 0.1 mM Na3VO4 and 0.001 mM ATP. After about 60 min incubation at rt, the reaction was quenched by addition of EDTA (final concentration: 100 mM) and developed by addition of revelation reagents (final approximate concentrations: 30 mM HEPES pH 7.0, 0.06% BSA, 0.006% Tween-20, 0.24 M KF, 90 ng/mL PT66K (europium labeled anti-phosphotyrosine antibody cat #61T66KLB Cisbio, Bedford, Mass.) and 0.6 μg/mL SAXL (Phycolink streptavidin-allophycocyanin acceptor, cat #PJ52S, Prozyme, San Leandro, Calif.). The developed reaction was incubated in the dark either at about 4° C. for about 14 h or for about 60 min at rt, then read via a time-resolved fluorescence detector (Rubystar, BMG) using a 337 nm laser for excitation and emission wavelength of 665 nm. Within the linear range of the assay, the observed signal at 665 nm is directly related to phosphorylated product and used to calculate the IC50 values.

Row | Structure (SMILES) | IC50 [µM]
7 | c1cc(-c2cc3c(ncn4ccnc34)[nH]2)ccn1 [Example #12, 8-(Pyridin-4-yl)-7H-imidazo[1,2-c]pyrrolo[3,2-e]pyrimidine] | 1 to 10
8 | Brc1cnc2c3cc[nH]c3ncn12 [Example #10, Step D, 3-bromo-7H-imidazo[1,2-c]pyrrolo[3,2-e]pyrimidine] | > 10
9 | CS(=O)(=O)c1ccc(-c2nnc3c4cc[nH]c4ncn23)cc1 [Example #9, 3-(4-(Methylsulfonyl)phenyl)-7H-pyrrolo[3,2-e][1,2,4]triazolo[4,3-c]pyrimidine] | > 10
10 | c1cc2c(ncn3cnc(C4CCCCC4)c23)[nH]1 [Example #1, 1-Cyclohexyl-7H-imidazo[1,5-c]pyrrolo[3,2-e]pyrimidine] | 1 to 10
11 | c1cc2c(ncn3nnc(C4CCCCC4)c23)[nH]1 [Example #2, 1-Cyclohexyl-7H-pyrrolo[3,2-e][1,2,3]triazolo[1,5-c]pyrimidine] | > 10
12 | CCCNC(=O)c1ccc(Nc2nc3[nH]ccc3c3nccn23)cc1 [Example #7, 4-(7H-Imidazo[1,2-c]pyrrolo[3,2-e]pyrimidin-5-ylamino)-N-propylbenzamide] | > 10
13 | CC(=O)N1CCCC(c2nc(-c3ccc(C(C)C)cc3)n3cnc4[nH]ccc4c23)C1 (stereo not shown) [Example #13, 1-(3-(3-(4-Isopropylphenyl)-7H-imidazo[1,5-c]pyrrolo[3,2-e]pyrimidin-1-yl)piperidin-1-yl)ethanone] | 1 to 10
14 | c1cncc(-c2cn3cnc4[nH]ccc4c3n2)c1 [Example #11, 2-(Pyridin-3-yl)-7H-imidazo[1,2-c]pyrrolo[3,2-e]pyrimidine] | 1 to 10
15 | COc1ccc(-c2nnc3c4cc[nH]c4ncn23)cc1 [Example #8, 3-(4-Methoxyphenyl)-7H-pyrrolo[3,2-e][1,2,4]triazolo[4,3-c]pyrimidine] | > 10
16 | CC(C)(O)c1ccc(-c2cnc3c4cc[nH]c4ncn23)cc1 [Example #10, 2-(4-(7H-Imidazo[1,2-c]pyrrolo[3,2-e]pyrimidin-3-yl)phenyl)propan-2-ol] | 0.1 to 1
